{"source": "ChEMBL document CHEMBL1201862", "about": "“PubChem BioAssay data set” (2004)", "assay_in_all_cases": "DTP human tumour cell line panel, 48 h", "key": {"OVCAR-4": {"tested_on": "OVCAR-4"}, "HCT-15": {"tested_on": "HCT-15"}, "HCC 2998": {"tested_on": "HCC 2998"}, "SF-539": {"tested_on": "SF-539"}, "SNB-19": {"tested_on": "SNB-19"}, "SN12C": {"tested_on": "SN12C"}, "OVCAR-3": {"tested_on": "OVCAR-3"}, "Malme-3M": {"tested_on": "Malme-3M"}, "SK-MEL-28": {"tested_on": "SK-MEL-28"}, "ACHN": {"tested_on": "ACHN"}, "RXF 393": {"tested_on": "RXF 393"}, "SW-620": {"tested_on": "SW-620"}, "HT-29": {"tested_on": "HT-29"}, "IGROV-1": {"tested_on": "IGROV-1"}, "SNB-75": {"tested_on": "SNB-75"}, "SK-OV-3": {"tested_on": "SK-OV-3"}}, "note": "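Where inhibition never reached the appropriate level, the endpoint shown equals the highest concentration tested. Otherwise, values were interpolated linearly from a five-concentration, 48-hour dose response in 96-well plates. The concentration for 50% growth inhibition is given as GI50.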 Activity calls are given as the source filed them. Rule as the data show it: active = GI50 up to about 1.1 µM and inactive = higher.", "data": [{"compound": "CC(C)CS(=O)(=O)/C(=C(\\c1ccc(Br)cc1)S(=O)(=O)CC(C)C)c1ccc(Br)cc1", "values": [{"measurement": "GI50", "setting": "OVCAR-4", "result": "> 100 µM (inactive)"}, {"measurement": "GI50", "setting": "HCT-15", "result": "> 100", "unit": "µM"}, {"measurement": "GI50", "setting": "HCC 2998", "result": "> 100 µM (inactive)"}, {"measurement": "GI50", "setting": "SF-539", "result": "> 100 µM (inactive)"}, {"measurement": "GI50", "setting": "SNB-19", "result": "> 100 µM (inactive)"}, {"measurement": "GI50", "setting": "SN12C", "result": "> 100 µM (inactive)"}, {"measurement": "GI50", "setting": "OVCAR-3", "result": "> 100 µM (inactive)"}, {"measurement": "GI50", "setting": "Malme-3M", "result": "> 100 µM (inactive)"}, {"measurement": "GI50", "setting": "SK-MEL-28", "result": "> 100 µM (inactive)"}, {"measurement": "GI50", "setting": "ACHN", "result": "> 100 µM (inactive)"}, {"measurement": "GI50", "setting": "RXF 393", "result": "90.2 µM (inactive)"}, {"measurement": "GI50", "setting": "SW-620", "result": "> 100 µM (inactive)"}, {"measurement": "GI50", "setting": "HT-29", "result": "> 100 µM (inactive)"}, {"measurement": "GI50", "setting": "IGROV-1", "result": "15.6 µM (inactive)"}, {"measurement": "GI50", "setting": "SNB-75", "result": "38.3 µM (inactive)"}]}, {"compound": "O=C1C2=C(c3ccccc31)C(c1ccc(Cl)cc1)N1C(=O)CCSC1=N2", "note": "(stereo not given)", "values": [{"measurement": "GI50", "setting": "SK-OV-3", "result": "> 100 µM (inactive)"}, {"measurement": "GI50", "setting": "OVCAR-4", "result": "36.1 µM (inactive)"}, {"measurement": "GI50", "setting": "HCT-15", "result": 67.8, "unit": "µM"}, {"measurement": "GI50", "setting": "HCC 2998", "result": "> 100 µM (inactive)"}, {"measurement": "GI50", "setting": "SF-539", "result": "> 100 µM (inactive)"}, {"measurement": "GI50", "setting": "SNB-19", "result": "> 100 µM (inactive)"}, {"measurement": "GI50", "setting": "SN12C", "result": "44.6 µM (inactive)"}, {"measurement": "GI50", "setting": "OVCAR-3", "result": "84.3 µM (inactive)"}, {"measurement": "GI50", "setting": "Malme-3M", "result": "89.3 µM (inactive)"}, {"measurement": "GI50", "setting": "SK-MEL-28", "result": "> 100 µM (inactive)"}, {"measurement": "GI50", "setting": "ACHN", "result": "> 100 µM (inactive)"}, {"measurement": "GI50", "setting": "SW-620", "result": "63.1 µM (inactive)"}, {"measurement": "GI50", "setting": "HT-29", "result": "> 100 µM (inactive)"}, {"measurement": "GI50", "setting": "IGROV-1", "result": "98.6 µM (inactive)"}, {"measurement": "GI50", "setting": "SNB-75", "result": "43.2 µM (inactive)"}]}, {"compound": "CCOC(=O)/C(I)=C/c1cc(OC)c(OC)c(OC)c1", "values": [{"measurement": "GI50", "setting": "SK-OV-3", "result": "26.9 µM (inactive)"}, {"measurement": "GI50", "setting": "OVCAR-4", "result": "14.7 µM (inactive)"}, {"measurement": "GI50", "setting": "HCT-15", "result": 3.9, "unit": "µM"}, {"measurement": "GI50", "setting": "HCC 2998", "result": "14.2 µM (inactive)"}, {"measurement": "GI50", "setting": "SF-539", "result": "9.08 µM (inactive)"}, {"measurement": "GI50", "setting": "SNB-19", "result": "7.64 µM (inactive)"}, {"measurement": "GI50", "setting": "SN12C", "result": "4.62 µM (inactive)"}, {"measurement": "GI50", "setting": "OVCAR-3", "result": "3.94 µM (inactive)"}, {"measurement": "GI50", "setting": "Malme-3M", "result": "8.89 µM (inactive)"}, {"measurement": "GI50", "setting": "SK-MEL-28", "result": "1.41 µM (inactive)"}, {"measurement": "GI50", "setting": "ACHN", "result": "7.14 µM (inactive)"}, {"measurement": "GI50", "setting": "SW-620", "result": "3.55 µM (inactive)"}, {"measurement": "GI50", "setting": "HT-29", "result": "4.55 µM (inactive)"}, {"measurement": "GI50", "setting": "IGROV-1", "result": "22.2 µM (inactive)"}, {"measurement": "GI50", "setting": "SNB-75", "result": "28.8 µM (inactive)"}]}, {"compound": "CCCCCC(/C=C/[C@@H]1[C@H]2CC(=O)O[C@H]2C[C@H]1N1CCOCC1)OC1CCCO1", "note": "(stereo not given in full)", "values": [{"measurement": "GI50", "setting": "SK-OV-3", "result": "> 100 µM (inactive)"}, {"measurement": "GI50", "setting": "OVCAR-4", "result": "> 100 µM (inactive)"}, {"measurement": "GI50", "setting": "HCT-15", "result": "> 100", "unit": "µM"}, {"measurement": "GI50", "setting": "HCC 2998", "result": "> 100 µM (inactive)"}, {"measurement": "GI50", "setting": "SF-539", "result": "> 100 µM (inactive)"}, {"measurement": "GI50", "setting": "SNB-19", "result": "> 100 µM (inactive)"}, {"measurement": "GI50", "setting": "OVCAR-3", "result": "> 100 µM (inactive)"}, {"measurement": "GI50", "setting": "Malme-3M", "result": "> 100 µM (inactive)"}, {"measurement": "GI50", "setting": "SK-MEL-28", "result": "> 100 µM (inactive)"}, {"measurement": "GI50", "setting": "ACHN", "result": "> 100 µM (inactive)"}, {"measurement": "GI50", "setting": "RXF 393", "result": "> 100 µM (inactive)"}, {"measurement": "GI50", "setting": "SW-620", "result": "> 100 µM (inactive)"}, {"measurement": "GI50", "setting": "HT-29", "result": "> 100 µM (inactive)"}, {"measurement": "GI50", "setting": "IGROV-1", "result": "> 100 µM (inactive)"}, {"measurement": "GI50", "setting": "SNB-75", "result": "> 100 µM (inactive)"}]}, {"compound": "COc1ccc(/C=C2\\CCC(CCN(C)C)(C3=CCCC3)C2=O)cc1Br", "note": "(stereo not given)", "values": [{"measurement": "GI50", "setting": "OVCAR-4", "result": "3.68 µM (inactive)"}, {"measurement": "GI50", "setting": "HCT-15", "result": 4.54, "unit": "µM"}, {"measurement": "GI50", "setting": "HCC 2998", "result": "2.33 µM (inactive)"}, {"measurement": "GI50", "setting": "SF-539", "result": "12.1 µM (inactive)"}, {"measurement": "GI50", "setting": "SNB-19", "result": "9.44 µM (inactive)"}, {"measurement": "GI50", "setting": "SN12C", "result": "9.95 µM (inactive)"}, {"measurement": "GI50", "setting": "OVCAR-3", "result": "5.74 µM (inactive)"}, {"measurement": "GI50", "setting": "Malme-3M", "result": "13.8 µM (inactive)"}, {"measurement": "GI50", "setting": "SK-MEL-28", "result": "2.76 µM (inactive)"}, {"measurement": "GI50", "setting": "ACHN", "result": "9.29 µM (inactive)"}, {"measurement": "GI50", "setting": "RXF 393", "result": "2.22 µM (inactive)"}, {"measurement": "GI50", "setting": "SW-620", "result": "7.66 µM (inactive)"}, {"measurement": "GI50", "setting": "HT-29", "result": "2.59 µM (inactive)"}, {"measurement": "GI50", "setting": "IGROV-1", "result": "4.54 µM (inactive)"}, {"measurement": "GI50", "setting": "SNB-75", "result": "4.49 µM (inactive)"}]}]}
